Laboratory results published in the supplement of paper PMC10307832.

What was measured:
Assay in all cases: relative viability (nuclei count vs DMSO), 5 days (fraction); higher = more cells survive
NCI-H460 = tested on: NCI-H460
Outline: (§1)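 Relative viability was taken as the ratio of nuclei in treated wells to nuclei in vehicle wells. Lung cancer cell lines in 1536-well plates received compounds by pin tool one day after seeding, either one drug alone or a fixed anchor-drug dose plus five library-drug doses (not always all listed) in √10 steps. Nuclei were counted on 4× images after 5 days of treatment, and values are medians of duplicate plates.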

HCC-78 = tested on: HCC-78
Outline: as §1

HOP-62 = tested on: HOP-62
Outline: as §1

NCI-H2170 = tested on: NCI-H2170
Outline: as §1

NCI-H358 = tested on: NCI-H358
Outline: as §1

LXF-289 = tested on: LXF-289
Outline: as §1

LU99A = tested on: LU99A
Outline: as §1

SK-LU-1 = tested on: SK-LU-1
Outline: as §1

A-427 = tested on: A-427
Outline: as §1

NCI-H1792 = tested on: NCI-H1792
Outline: as §1

NCI-H1975 = tested on: NCI-H1975
Outline: as §1

NC(=O)Nc1cc(-c2cccc(F)c2)sc1C(=O)N[C@H]1CCCNC1 [AZD7762] + CS(=O)(=O)CCNCc1ccc(-c2ccc3ncnc(Nc4ccc(OCc5cccc(F)c5)c(Cl)c4)c3c2)o1 [Lapatinib] (partner 2 µM)
relative viability (NCI-H460; first compound 0.01 µM): 1.07 | relative viability (NCI-H460; first compound 0.03162 µM): 0.972 | relative viability (NCI-H460; first compound 0.1 µM): 0.824 | relative viability (NCI-H460; first compound 0.3162 µM): 0.467 | relative viability (NCI-H460; first compound 1 µM): 0.0597 | relative viability (HCC-78; first compound 0.01 µM): 0.863 | relative viability (HCC-78; first compound 0.03162 µM): 0.791 | relative viability (HCC-78; first compound 0.1 µM): 0.842 | relative viability (HCC-78; first compound 0.3162 µM): 0.653 | relative viability (HCC-78; first compound 1 µM): 0.304 | relative viability (HOP-62; first compound 0.01 µM): 0.993 | relative viability (HOP-62; first compound 0.03162 µM): 1.06 | relative viability (HOP-62; first compound 0.1 µM): 1.27 | relative viability (HOP-62; first compound 0.3162 µM): 0.989 | relative viability (HOP-62; first compound 1 µM): 0.565 | relative viability (NCI-H2170; first compound 0.01 µM): 0.289 | relative viability (NCI-H2170; first compound 0.03162 µM): 0.256 | relative viability (NCI-H2170; first compound 0.1 µM): 0.26 | relative viability (NCI-H2170; first compound 0.3162 µM): 0.263 | relative viability (NCI-H2170; first compound 1 µM): 0.257 | relative viability (NCI-H358; first compound 0.01 µM): 0.478 | relative viability (NCI-H358; first compound 0.03162 µM): 0.537 | relative viability (NCI-H358; first compound 0.1 µM): 0.497 | relative viability (NCI-H358; first compound 0.3162 µM): 0.451 | relative viability (NCI-H358; first compound 1 µM): 0.327 | relative viability (LXF-289; first compound 0.01 µM): 0.906 | relative viability (LXF-289; first compound 0.03162 µM): 0.909 | relative viability (LXF-289; first compound 0.1 µM): 0.973 | relative viability (LXF-289; first compound 0.3162 µM): 0.912 | relative viability (LXF-289; first compound 1 µM): 0.983 | relative viability (LU99A; first compound 0.01 µM): 0.954 | relative viability (LU99A; first compound 0.03162 µM): 1.1 | relative viability (LU99A; first compound 0.1 µM): 0.952 | relative viability (LU99A; first compound 0.3162 µM): 0.789 | relative viability (LU99A; first compound 1 µM): 0.416 | relative viability (SK-LU-1; first compound 0.01 µM): 0.943 | relative viability (SK-LU-1; first compound 0.03162 µM): 0.714 | relative viability (SK-LU-1; first compound 0.1 µM): 0.456 | relative viability (SK-LU-1; first compound 0.3162 µM): 0.276 | relative viability (SK-LU-1; first compound 1 µM): 0.217 | relative viability (A-427; first compound 0.01 µM): 1.09 | relative viability (A-427; first compound 0.03162 µM): 1.05 | relative viability (A-427; first compound 0.1 µM): 1.07 | relative viability (A-427; first compound 0.3162 µM): 0.938 | relative viability (A-427; first compound 1 µM): 0.716 | relative viability (NCI-H1792; first compound 0.01 µM): 0.965 | relative viability (NCI-H1792; first compound 0.03162 µM): 0.911 | relative viability (NCI-H1792; first compound 0.1 µM): 0.925 | relative viability (NCI-H1792; first compound 0.3162 µM): 0.945 | relative viability (NCI-H1792; first compound 1 µM): 1.05 | relative viability (NCI-H1975; first compound 0.01 µM): 0.89 | relative viability (NCI-H1975; first compound 0.03162 µM): 0.831 | relative viability (NCI-H1975; first compound 0.1 µM): 0.776 | relative viability (NCI-H1975; first compound 0.3162 µM): 0.639 | relative viability (NCI-H1975; first compound 1 µM): 0.398
